Source: ChEMBL document CHEMBL1133927, “Antimalarial t-butylperoxyamines” (Bioorg Med Chem Lett, 2001)
Active and inactive are the calls of the source. The calls are words filed in the database; no cut-off is given here.

Columns and labels:
Mus musculus [1] = assay: In vivo antimalarial activity against Plasmodium berghei in mice (Mus musculus); Inactive; assay type: functional, organism-based
Plasmodium falciparum [2] = assay: (§1) In vitro schizont maturation inhibition for chloroquine-sensitive Plasmodium falciparum FSH 14; assay type: functional
Plasmodium falciparum [3] = assay: (§2) In vitro schizont maturation inhibition for chloroquine-sensitive Plasmodium falciparum FJB D9; assay type: functional
Mus musculus [4] = assay: Mean survival time of mice (Mus musculus) infected with Plasmodium berghei after administration of compound at the dose of 160 mg/kg; assay type: functional
Mus musculus [5] = assay: Mean survival time of mice (Mus musculus) infected with Plasmodium berghei after administration of compound at the dose of 80 mg/kg; assay type: functional
Plasmodium falciparum [6] = assay: (§3) In vitro total parasite growth inhibition for chloroquine-sensitive Plasmodium falciparum FSH 14; assay type: functional
Plasmodium falciparum [7] = assay: as §1; assay type: functional, organism-based
Plasmodium falciparum [8] = assay: as §2; assay type: functional, organism-based
Plasmodium falciparum [9] = assay: (§4) In vitro total parasite growth inhibition for chloroquine-sensitive Plasmodium falciparum FJB D9; assay type: functional
Mus musculus [10] = assay: Mean survival time of mice (Mus musculus) infected with Plasmodium berghei after administration of compound at the dose of 40 mg/kg; assay type: functional
Plasmodium falciparum [11] = assay: as §4; assay type: functional, organism-based
Plasmodium falciparum [12] = assay: as §3; assay type: functional, organism-based
Mus musculus [13] = assay: Mean survival time of mice (Mus musculus) infected with Plasmodium berghei after administration of compound at the dose of 20 mg/kg; assay type: functional
Mus musculus [14] = assay: In vivo antimalarial activity against Plasmodium berghei in mice (Mus musculus); Active at 160 mg/kg; assay type: functional, organism-based; parameters: dose 160 mg/kg
Mus musculus [15] = assay: In vivo antimalarial activity against Plasmodium berghei in mice (Mus musculus); In active; assay type: functional, organism-based
Mus musculus [16] = assay: In vivo antimalarial activity against Plasmodium berghei in mice (Mus musculus); Active at 80 and 160 mg/kg; assay type: functional, organism-based; parameters: dose 160 mg/kg
Mus musculus [17] = assay: In vivo antimalarial activity against Plasmodium berghei in mice (Mus musculus); Active from 40 mg/kg; assay type: functional, organism-based; parameters: dose 40 mg/kg

SMILES | Activity (Mus musculus [1]) | IC90 (Plasmodium falciparum [2]) | IC90 (Plasmodium falciparum [3]) | Mean survival time (Mus musculus [4]) | Mean survival time (Mus musculus [5]) | IC90 (Plasmodium falciparum [6]) | IC50 (Plasmodium falciparum [7]) | IC50 (Plasmodium falciparum [8]) | IC90 (Plasmodium falciparum [9]) | Mean survival time (Mus musculus [10]) | IC50 (Plasmodium falciparum [11]) | IC50 (Plasmodium falciparum [12]) | Mean survival time (Mus musculus [13]) | Activity (Mus musculus [14]) | Activity (Mus musculus [15]) | Activity (Mus musculus [16]) | Activity (Mus musculus [17])
CCN(CC)COOC(C)(C)C | inactive | >25 uM well-1 | >25 uM well-1 | 12.2 days | 9.4 days | >25 uM well-1 | > 25 uM well-1 | > 25 uM well-1 | >25 uM well-1 | 8.4 days | > 25 uM well-1 | > 25 uM well-1 | 7.2 days | – | – | – | –
CC(C)(C)OOCN(Cc1ccccc1)Cc1cccs1 | – | 11.5 uM well-1 | 6 uM well-1 | 14 days | 10.2 days | 12 uM well-1 | 0.5 uM well-1 | 0.9 uM well-1 | 4.8 uM well-1 | 6.6 days | 2.7 uM well-1 | 2.2 uM well-1 | 5.8 days | Active | – | – | –
CC(C)=CCCC(C)CCN(CCO)COOC(C)(C)C (stereo not drawn) | – | >25 uM well-1 | >25 uM well-1 | 15 days | 11.2 days | >25 uM well-1 | 1.4 uM well-1 | 3.2 uM well-1 | >25 uM well-1 | 7.3 days | 7.8 uM well-1 | 3.8 uM well-1 | 6.2 days | Active | – | – | –
COC1=CC=C2[C@H]3Cc4ccc(OC)c5c4[C@@]2(CCN3COOC(C)(C)C)[C@H]1O5 | – | 0.92 uM well-1 | 0.47 uM well-1 | 7.2 days | 6.8 days | 5 uM well-1 | 0.5 uM well-1 | 0.135 uM well-1 | 6.4 uM well-1 | 40 days | 1.8 uM well-1 | 0.45 uM well-1 | 5.2 days | – | inactive | – | –
CC(C)(C)OOCN(CCO)CCO | – | >25 uM well-1 | >25 uM well-1 | 14 days | 12.8 days | >25 uM well-1 | 10 uM well-1 | 22 uM well-1 | >25 uM well-1 | 11.6 days | > 25 uM well-1 | > 25 uM well-1 | 10.2 days | – | – | Active | –
CC(C)(C)OOCN1CCCC1 | – | >25 uM well-1 | >25 uM well-1 | 11.8 days | 9.8 days | >25 uM well-1 | > 25 uM well-1 | > 25 uM well-1 | >25 uM well-1 | 7 days | > 25 uM well-1 | > 25 uM well-1 | 5.4 days | Active | – | – | –
CC(C)(C)OOCN1CCCCC1 | inactive | 24 uM well-1 | 22.5 uM well-1 | 10.2 days | 8.2 days | >25 uM well-1 | 2.9 uM well-1 | 3.6 uM well-1 | >25 uM well-1 | 6.6 days | 5.5 uM well-1 | 5 uM well-1 | 5.2 days | – | – | – | –
C[C@@H]1CC[C@H]2[C@@H](C)C(=O)O[C@@H]3O[C@@]4(C)CC[C@@H]1[C@]32OO4 [ARTEMISININ] | – | 0.028 uM well-1 | 0.028 uM well-1 | – | – | 0.029 uM well-1 | 0.01 uM well-1 | 0.01 uM well-1 | 0.03 uM well-1 | – | 0.015 uM well-1 | 0.01 uM well-1 | 10.8 days | – | – | – | Active
CC(C)(C)OOCN1CCOCC1 | inactive | 2.9 uM well-1 | 2.6 uM well-1 | 11.4 days | 8.8 days | 2.15 uM well-1 | 0.064 uM well-1 | 0.058 uM well-1 | 3 uM well-1 | 7.6 days | 0.15 uM well-1 | 0.16 uM well-1 | 6.8 days | – | – | – | –
CC(C)(C)OOCN(C1CCCCC1)C1CCCCC1 | – | >25 uM well-1 | 21 uM well-1 | 13.4 days | 9.8 days | >25 uM well-1 | 2.1 uM well-1 | 1.5 uM well-1 | 25 uM well-1 | 8.6 days | 5 uM well-1 | 5 uM well-1 | 7.6 days | Active | – | – | –
CC(C)(C)OOCN(Cc1ccccc1)Cc1ccco1 | inactive | 4.5 uM well-1 | 2.8 uM well-1 | 12 days | 10.8 days | 5.4 uM well-1 | 1.35 uM well-1 | 1.45 uM well-1 | 5.5 uM well-1 | 7.2 days | 2.1 uM well-1 | 2.25 uM well-1 | 6.4 days | – | – | – | –
CC(C)=CCCC(C)CCN(COOC(C)(C)C)Cc1ccccc1 (stereo not drawn) | – | 10 uM well-1 | 9 uM well-1 | 12.2 days | 10.8 days | 12 uM well-1 | 1.6 uM well-1 | 1.6 uM well-1 | 10 uM well-1 | 6.8 days | 4.4 uM well-1 | 2.5 uM well-1 | 5.2 days | Active | – | – | –
